Test results reported in patent publication US20220281848A1, “PYRAZOLE-SUBSTITUTED PYRROLIDINONES AS HERBICIDES” (FMC Corporation, priority 2019, published 2022).

Tested on: plants
Test: Test D pre-emergence, other plants of Tables D1 and D3
Format: in vivo
Conditions: for damage to plant, ALOMY / damage to plant, AVEFA / damage to plant, BEAVA / damage to plant, BROTE / damage to plant, BRSNN / damage to plant, CHEAL / damage to plant, GALAP / damage to plant, HORVW / damage to plant, KCHSC / damage to plant, LOLPE / damage to plant, POAAN / damage to plant, POLCO / damage to plant, SINAR / damage to plant, STEME / damage to plant, VERPE: pre-emergence, 100=total damage, 0=no damage
Protocol: A formulation containing 50 g/L of the test chemical was prepared by dissolving the active ingredient in a mixture of organic solvents and emulsifier, details of which are provided in the table. This formulation was then mixed with a small, variable amount of acetone to aid dissolution, before addition of a 0.2% v/v aqueous solution of an adjuvant, as the aqueous diluent, to form an aqueous spray solution which contains a predetermined concentration of the active ingredient.
This aqueous spray solution was then sprayed onto plants including maize and wheat that had been seed treated with a herbicide safener, after one day's cultivation (for pre-emergence) or after about 12 days' cultivation (for post-emergence). The plants were grown from seeds sown in standard soil, placed in a glasshouse under controlled conditions (at 24/18° C. or 20/16° C., day/night; 16 h light; 65% humidity). After spray application the plants were then grown in a glasshouse under the same conditions and watered twice daily. After 15 d for post-emergence and 20 DAA for pre-emergence the test was evaluated (100=total damage to plant; 0=no damage to plant).

CN1CC(c2cc(C(F)(F)F)n(C)n2)C(C(=O)Nc2ccccc2F)C1=O (racemic) [Compound 9]
damage to plant (100=total damage to plant; 0=no damage to plant), SORVU (SORVU, preemergent, rate 500, 20 DAA): 0 | damage to plant, ALOMY (rate 15, 20 DAA): 0 | damage to plant, AVEFA (rate 15, 20 DAA): 0 | damage to plant, BEAVA (rate 15, 20 DAA): 0 | damage to plant, BROTE (rate 15, 20 DAA): 0 | damage to plant, BRSNN (rate 15, 20 DAA): 0 | damage to plant, CHEAL (rate 15, 20 DAA): 0 | damage to plant, GALAP (rate 15, 20 DAA): 0 | damage to plant, HORVW (rate 15, 20 DAA): 0 | damage to plant, KCHSC (rate 15, 20 DAA): 0 | damage to plant, LOLPE (rate 15, 20 DAA): 0 | damage to plant, POAAN (rate 15, 20 DAA): 0 | damage to plant, POLCO (rate 15, 20 DAA): 0 | damage to plant, SINAR (rate 15, 20 DAA): 0 | damage to plant, STEME (rate 15, 20 DAA): 0 | damage to plant, VERPE (rate 15, 20 DAA): 0 | damage to plant, ALOMY (rate 30, 20 DAA): 0 | damage to plant, AVEFA (rate 30, 20 DAA): 0 | damage to plant, BEAVA (rate 30, 20 DAA): 0 | damage to plant, BROTE (rate 30, 20 DAA): 0 | damage to plant, BRSNN (rate 30, 20 DAA): 0 | damage to plant, CHEAL (rate 30, 20 DAA): 0 | damage to plant, GALAP (rate 30, 20 DAA): 0 | damage to plant, HORVW (rate 30, 20 DAA): 0 | damage to plant, KCHSC (rate 30, 20 DAA): 0 | damage to plant, LOLPE (rate 30, 20 DAA): 0 | damage to plant, POAAN (rate 30, 20 DAA): 0 | damage to plant, POLCO (rate 30, 20 DAA): 0 | damage to plant, SINAR (rate 30, 20 DAA): 0 | damage to plant, STEME (rate 30, 20 DAA): 0 | damage to plant, VERPE (rate 30, 20 DAA): 0 | damage to plant, ALOMY (rate 60, 20 DAA): 0 | damage to plant, AVEFA (rate 60, 20 DAA): 0 | damage to plant, BEAVA (rate 60, 20 DAA): 0 | damage to plant, BROTE (rate 60, 20 DAA): 0 | damage to plant, BRSNN (rate 60, 20 DAA): 0 | damage to plant, CHEAL (rate 60, 20 DAA): 0 | damage to plant, GALAP (rate 60, 20 DAA): 0 | damage to plant, HORVW (rate 60, 20 DAA): 0 | damage to plant, KCHSC (rate 60, 20 DAA): 0 | damage to plant, LOLPE (rate 60, 20 DAA): 0 | damage to plant, POAAN (rate 60, 20 DAA): 0 | damage to plant, POLCO (rate 60, 20 DAA): 0 | damage to plant, SINAR (rate 60, 20 DAA): 0 | damage to plant, STEME (rate 60, 20 DAA): 0 | damage to plant, VERPE (rate 60, 20 DAA): 0 | damage to plant, ALOMY (rate 130, 20 DAA): 0 | damage to plant, AVEFA (rate 130, 20 DAA): 0 | damage to plant, BEAVA (rate 130, 20 DAA): 0 | damage to plant, BROTE (rate 130, 20 DAA): 0 | damage to plant, BRSNN (rate 130, 20 DAA): 0 | damage to plant, CHEAL (rate 130, 20 DAA): 0 | damage to plant, GALAP (rate 130, 20 DAA): 0 | damage to plant, HORVW (rate 130, 20 DAA): 0 | damage to plant, KCHSC (rate 130, 20 DAA): 0 | damage to plant, LOLPE (rate 130, 20 DAA): 0 | damage to plant, POAAN (rate 130, 20 DAA): 10 | damage to plant, POLCO (rate 130, 20 DAA): 0 | damage to plant, SINAR (rate 130, 20 DAA): 0 | damage to plant, STEME (rate 130, 20 DAA): 0 | damage to plant, VERPE (rate 130, 20 DAA): 0 | damage to plant, ALOMY (rate 250, 20 DAA): 0 | damage to plant, AVEFA (rate 250, 20 DAA): 10 | damage to plant, BEAVA (rate 250, 20 DAA): 0 | damage to plant, BROTE (rate 250, 20 DAA): 0 | damage to plant, BRSNN (rate 250, 20 DAA): 0 | damage to plant, CHEAL (rate 250, 20 DAA): 0 | damage to plant, GALAP (rate 250, 20 DAA): 0 | damage to plant, HORVW (rate 250, 20 DAA): 0 | damage to plant, KCHSC (rate 250, 20 DAA): 0 | damage to plant, LOLPE (rate 250, 20 DAA): 30 | damage to plant, POAAN (rate 250, 20 DAA): 10 | damage to plant, POLCO (rate 250, 20 DAA): 0 | damage to plant, SINAR (rate 250, 20 DAA): 0 | damage to plant, STEME (rate 250, 20 DAA): 10 | damage to plant, VERPE (rate 250, 20 DAA): 0 | damage to plant, ALOMY (rate 500, 20 DAA): 0 | damage to plant, AVEFA (rate 500, 20 DAA): 20 | damage to plant, BEAVA (rate 500, 20 DAA): 0 | damage to plant, BROTE (rate 500, 20 DAA): 0 | damage to plant, BRSNN (rate 500, 20 DAA): 0 | damage to plant, CHEAL (rate 500, 20 DAA): 0 | damage to plant, GALAP (rate 500, 20 DAA): 10 | damage to plant, HORVW (rate 500, 20 DAA): 0 | damage to plant, KCHSC (rate 500, 20 DAA): 0 | damage to plant, LOLPE (rate 500, 20 DAA): 20 | damage to plant, POAAN (rate 500, 20 DAA): 50 | damage to plant, POLCO (rate 500, 20 DAA): 0 | damage to plant, SINAR (rate 500, 20 DAA): 0 | damage to plant, STEME (rate 500, 20 DAA): 80 | damage to plant, VERPE (rate 500, 20 DAA): 0
